Test results: the supplement of paper PMC10627819

Key:
B. subtilis 168 [1] = assay: fitness (endpoint OD595 vs no drug) (fraction); higher = more growth
Outline: (§1)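 At 37 °C, bacteria in TSB, LB Lennox or CY were grown in 384-well plates from a starting OD595 of 0.01. OD595 was measured every 30 min for 14 h, with the first reading used as background. Fitness is the optical density at the switch to stationary phase as a fraction of the robust mean of no-drug control wells, capped at 1.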

S. aureus Newman [2] = assay: as above
Outline: as §1

S. pneumoniae D39V [3] = assay: as above
Outline: as §1

B. subtilis 168 [4] = assay: Bliss interaction score (quartile over a dose matrix) (fitness difference); higher = more antagonism (negative = synergy)
Outline: (§2)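 Fitness was OD595 at entry into stationary phase divided by the plate's robust no-drug mean and capped at 1; single-drug fitness was inferred from combination data. The Bliss score is observed minus expected (product) fitness, summarised by quartiles over technical, biological and donor/recipient replicates.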

S. aureus DSM 20231 = assay: as above
Outline: as §2

S. aureus Newman [5] = assay: as above
Outline: as §2

S. pneumoniae D39V [6] = assay: as above
Outline: as §2
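For Bliss interaction score (quartile over a dose matrix) in this document: first quartile when negative (synergy) and third quartile when positive (antagonism).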

O=C(O)c1cn(C2CC2)c2cc(N3CCNCC3)c(F)cc2c1=O [Ciprofloxacin] + CN(C)c1cc(NC(=O)CNC(C)(C)C)c(O)c2c1C[C@H]1C[C@H]3[C@H](N(C)C)C(O)=C(C(N)=O)C(=O)[C@@]3(O)C(O)=C1C2=O [Tigecycline]
Details	fitness
B. subtilis 168 [1], first compound 0.0098 µg/mL, partner 0.039 µg/mL	0.919
B. subtilis 168 [1], first compound 0.0098 µg/mL, partner 0.078 µg/mL	0.889
B. subtilis 168 [1], first compound 0.0098 µg/mL, partner 0.156 µg/mL	0.821
B. subtilis 168 [1], first compound 0.0195 µg/mL, partner 0.039 µg/mL	0.758
B. subtilis 168 [1], first compound 0.0195 µg/mL, partner 0.078 µg/mL	0.697
B. subtilis 168 [1], first compound 0.0195 µg/mL, partner 0.156 µg/mL	0.713
S. aureus Newman [2], first compound 0.0375 µg/mL, partner 0.078 µg/mL	0.735
S. aureus Newman [2], first compound 0.0375 µg/mL, partner 0.156 µg/mL	0.735
S. aureus Newman [2], first compound 0.075 µg/mL, partner 0.039 µg/mL	0.656
S. aureus Newman [2], first compound 0.075 µg/mL, partner 0.078 µg/mL	0.698
S. aureus Newman [2], first compound 0.075 µg/mL, partner 0.156 µg/mL	0.683
S. aureus Newman [2], first compound 0.15 µg/mL, partner 0.039 µg/mL	0.0882
S. aureus Newman [2], first compound 0.15 µg/mL, partner 0.078 µg/mL	0.045
S. aureus Newman [2], first compound 0.15 µg/mL, partner 0.156 µg/mL	0.07
S. pneumoniae D39V [3], first compound 0.125 µg/mL, partner 0.325 µg/mL	0.944
S. pneumoniae D39V [3], first compound 0.125 µg/mL, partner 0.65 µg/mL	0.895
S. pneumoniae D39V [3], first compound 0.125 µg/mL, partner 1.3 µg/mL	0.945
S. pneumoniae D39V [3], first compound 0.125 µg/mL, partner 2.6 µg/mL	0.856
S. pneumoniae D39V [3], first compound 0.25 µg/mL, partner 0.65 µg/mL	0.795
S. pneumoniae D39V [3], first compound 0.25 µg/mL, partner 1.3 µg/mL	0.83
S. pneumoniae D39V [3], first compound 0.25 µg/mL, partner 2.6 µg/mL	0.767
S. pneumoniae D39V [3], first compound 0.5 µg/mL, partner 2.6 µg/mL	0.588

fitness, one replicate
Details	first compound 0.0098 µg/mL	first compound 0.0195 µg/mL	first compound 0.039 µg/mL	first compound 0.25 µg/mL
B. subtilis 168 [1], partner 0.125 µg/mL	≥ 1	0.964	0.709	–
B. subtilis 168 [1], partner 0.25 µg/mL	0.868	0.849	0.335	–
B. subtilis 168 [1], partner 0.5 µg/mL	0.901	0.828	0.313	–
S. pneumoniae D39V [3], partner 0.325 µg/mL	–	–	–	0.834

Details	Bliss interaction score
B. subtilis 168 [4]	-0.0691
S. aureus DSM 20231	0.0365
S. aureus Newman [5]	-0.0448
S. pneumoniae D39V [6]	-0.0751

O=C(O)c1cn(C2CC2)c2cc(N3CCNCC3)c(F)cc2c1=O [Ciprofloxacin] + Cc1ncc([N+](=O)[O-])n1CCO [Metronidazole]
Details	fitness
B. subtilis 168 [1], first compound 0.0098 µg/mL, partner 0.625 µg/mL	0.951
B. subtilis 168 [1], first compound 0.0098 µg/mL, partner 1.25 µg/mL	0.922
B. subtilis 168 [1], first compound 0.0098 µg/mL, partner 2.5 µg/mL	0.89
B. subtilis 168 [1], first compound 0.0195 µg/mL, partner 0.625 µg/mL	0.771
B. subtilis 168 [1], first compound 0.0195 µg/mL, partner 1.25 µg/mL	0.75
B. subtilis 168 [1], first compound 0.0195 µg/mL, partner 2.5 µg/mL	0.727
B. subtilis 168 [1], first compound 0.039 µg/mL, partner 1.25 µg/mL	0.29
B. subtilis 168 [1], first compound 0.039 µg/mL, partner 2.5 µg/mL	0.222
S. aureus Newman [2], first compound 0.0375 µg/mL, partner 0.625 µg/mL	0.649
S. aureus Newman [2], first compound 0.0375 µg/mL, partner 1.25 µg/mL	0.694
S. aureus Newman [2], first compound 0.0375 µg/mL, partner 2.5 µg/mL	0.693
S. aureus Newman [2], first compound 0.075 µg/mL, partner 0.625 µg/mL	0.725
S. aureus Newman [2], first compound 0.075 µg/mL, partner 2.5 µg/mL	0.732
S. aureus Newman [2], first compound 0.15 µg/mL, partner 2.5 µg/mL	0.0713
S. pneumoniae D39V [3], first compound 0.125 µg/mL, partner 1.073 µg/mL	0.935
S. pneumoniae D39V [3], first compound 0.125 µg/mL, partner 1.25 µg/mL	0.98
S. pneumoniae D39V [3], first compound 0.125 µg/mL, partner 2.145 µg/mL	0.894
S. pneumoniae D39V [3], first compound 0.125 µg/mL, partner 2.5 µg/mL	0.987
S. pneumoniae D39V [3], first compound 0.125 µg/mL, partner 4.29 µg/mL	0.916
S. pneumoniae D39V [3], first compound 0.125 µg/mL, partner 5 µg/mL	0.983
S. pneumoniae D39V [3], first compound 0.25 µg/mL, partner 1.073 µg/mL	0.923
S. pneumoniae D39V [3], first compound 0.25 µg/mL, partner 2.145 µg/mL	0.895
S. pneumoniae D39V [3], first compound 0.25 µg/mL, partner 4.29 µg/mL	0.892
S. pneumoniae D39V [3], first compound 0.5 µg/mL, partner 1.073 µg/mL	0.711
S. pneumoniae D39V [3], first compound 0.5 µg/mL, partner 2.5 µg/mL	0.781
S. pneumoniae D39V [3], first compound 0.5 µg/mL, partner 4.29 µg/mL	0.69
S. pneumoniae D39V [3], first compound 0.5 µg/mL, partner 5 µg/mL	0.81

fitness, one replicate
Details	partner 0.781 µg/mL	partner 1.25 µg/mL	partner 1.562 µg/mL	partner 2.5 µg/mL	partner 3.124 µg/mL	partner 5 µg/mL
S. aureus Newman [2], first compound 0.0375 µg/mL	0.653	–	0.663	–	0.644	–
S. aureus Newman [2], first compound 0.075 µg/mL	0.648	–	0.736	–	0.703	–
S. aureus Newman [2], first compound 0.15 µg/mL	0.0339	–	0.0507	–	0.0416	–
S. pneumoniae D39V [3], first compound 0.25 µg/mL	–	0.903	–	0.911	–	0.902

Details	Bliss interaction score
B. subtilis 168 [4]	0.0696
S. aureus DSM 20231	0.0471
S. aureus Newman [5]	0.0782
S. pneumoniae D39V [6]	0.0544
